Test results: patent US20130337070A1, “Coated Nanoparticle Therapy for Skin Cancer” (University of Central Florida Research Foundation Inc., priority 2012, published 2013)

Key:
[1] = tested on: A375 melanoma cells; assay: Intracellular ROS (DCF fluorescence), melanoma cells; conditions: A375, 5 μM doxorubicin, DCF over 90 min
[2] = tested on: human dermal fibroblasts (HDF); assay: Intracellular ROS (DCF fluorescence), fibroblasts; conditions: 150 μM CNP or 5 μM doxorubicin, DCF over 90 min
[3] = tested on: cytochrome c; assay: Cytosolic cytochrome c, western blot; conditions: A375; CNP 12 and 24 h; H2O2 1 h; vs mock-treated controls
[4] = tested on: A375 melanoma cells; assay: Oxidized thiol groups (sulfenic acid), western blot; conditions: A375, 150 μM CNP 24 h or 1 mM H2O2 2 h, vs dimedone treated controls
[5] = tested on: Caveolin-1; assay: Caveolin-1 expression, western blot; format: cell-based, human; conditions: for caveolin-1 expression after pretreatment, compared to CNP treated cells: melanoma cells pretreated with N-acetyl-L-cysteine (4 h) or apocynin (1 h), then CNP
Experimental: FIG. 6 Expression of Caveolin-1 in melanoma cells. […] H2O2 was used as a positive control and a-tubulin as a loading control. Three independent experiments were performed.

[6] = tested on: A375 melanoma cells; assay: Carbonylated proteins in cells (OxyBlot); conditions: A375, 150 μM CNP 4-48 h or 250 μM H2O2
[7] = tested on: human dermal fibroblasts (HDF)
Experimental: (§1) The activity of mitochondrial dehydrogenases, as indicator of cellular viability, results in the formation of a purple formazan dye. […] The medium was removed and the cells were lysed in dimethyl sulfoxide. The formazan formation was measured at 570 nm.

[8] = tested on: human endothelial cells (HMEC-1)
Experimental: as §1

[9] = tested on: A375 melanoma cells; assay: Extracellular hydrogen peroxide (Amplex Red); format: cell-based, human; conditions: A375, 1 h pre-incubation with 1 mM apocynin prior to CNP; 24 and 48 h
Experimental: The Amplex Red reagent (10-acetyl-3,7-dihydroxyphenoaxine), in combination with horseradish peroxidase (HRP), can be used to detect hydrogen peroxide released from cells. H2O2-mediated oxidation of the reagent results in the fluorescent product resorufin. Subconfluent A375 tumor cells were treated with 150 μM CNP or pre-incubated with 1 mM apocynin in serumfree DMEM in 96-well plates for different time points. […] Furthermore, the generation of intracellular ROS was determined using 2?,7?-Dichlorodihydrofluorescein diacetate (H2DCF-DA), a dye that diffuses across the lipid membranes into cells and is subsequently oxidized by intracellular ROS forming the highly fluorescent DCF.

[10] = tested on: caspase-3; assay: Caspase-3 activity assay; format: cell-based, human; conditions: melanoma cells, 100 nM staurosporine 24 h, positive control
Experimental: Cell pellets were suspended in cell lysis buffer and incubated on ice for 45 min. The lysate was vortexed every 15 min. After centrifugation at 11000×g for 15 min, supernatants were collected and immediately measured for protein concentration and caspase activity. Briefly, cell lysates (20 μg protein) were placed in 96-well plates and then the specific caspase substrate (Ac-DEVD-AMC for caspase-3) was added. Plates were incubated at 37° C. for 1 h and caspase activity was determined by fluorescence intensity with the excitation and emission wavelengths set at 380 nm and 440 nm, respectively.

Question: What does the source list for COc1cccc2c1C(=O)c1c(O)c3c(c(O)c1C2=O)C[C@@](O)(C(=O)CO)C[C@@H]3O[C@H]1C[C@H](N)[C@H](O)[C@H](C)O1 [doxorubicin]?
Answer: intracellular ROS level [1]: significantly increased; intracellular ROS level [2]: significantly increased

Question: How did the cytosolic cytochrome c [3] turn out when OO [H2O2, hydrogen peroxide] was run?
Answer: significant increase

Question: And the “oxidized thiols (sulfenic acid)” value [4]?
Answer: similarlevel

Question: And the “Cav-1 expression vs mock-treated control” value ([5]; melanoma cells, CNP for 1 h, H2O2 for 1 h and 4 h)?
Answer: completely abrogated

Question: And the “amount of carbonylated proteins vs mock-treated cells” value [6]?
Answer: significantly increased

Question: Which results are given for “dextran-coated cerium oxide nanoparticles [CNP]”?
Answer: cell viability [7]: not altered; cell viability [8]: not altered

Question: For CC(=O)N[C@@H](CS)C(=O)O [N-acetyl-L-cysteine], which “caveolin-1 expression after pretreatment, compared to CNP treated cells” value [5] is on record?
Answer: increased caveolin-1 expression

Question: Which “caveolin-1 expression after pretreatment, compared to CNP treated cells” value [5] does the source give for COc1cc(C(C)=O)ccc1O [apocynin] here?
Answer: increased caveolin-1 expression

Question: And the “CNP mediated hydrogen peroxide generation after apocynin pre-incubation” value [9]?
Answer: downregulated

Question: With CN[C@@H]1C[C@H]2O[C@@](C)([C@@H]1OC)n1c3ccccc3c3c4c(c5c6ccccc6n2c5c31)C(=O)NC4 [staurosporine] as the compound, how does the caspase-3 activity [10] read?
Answer: increased
